Experimental data: patent US11040959B2, “Diprovocims: a new and potent class of TLR agonists” (The Scripps Research Institute, priority 2016, dated 2021)
Where two headings read alike, the source gives them in different places.

How the values were obtained:
[1] = test system: mouse macrophages; experiment: stimulated release of TNF-α from mouse macrophages; format: cell-based
Excerpt: EC50 values are derived from dose-response curves for the stimulated release of TNF-α from differentiated THP-1 cells or mouse macrophages are shown beneath each appropriate structural formula of Compounds 8-12. Half maximal effective concentration (EC50) refers to the concentration of a drug, antibody or toxicant that induces a response halfway between the baseline and maximum after a specified exposure time. It is commonly used as a measure of a drug's potency.

[2] = test system: differentiated human THP-1 cells; experiment: stimulated release of TNF-α from differentiated human THP-1 cells (ELISA, dose-response); format: cell-based
Experimental: A screening campaign was conducted with nearly 100,000 compounds [(a) Whitby et al., Acc. Chem. Res. 2012, 45:1698-1709; and (b) Boger et al., Angew. Chem. Int. Ed. 2003, 42:4138-4176], using a newly developed functional assay that measured the stimulated release of TNF-α from treated human THP-1 cells partially differentiated along the macrophage line [unpublished results of the inventors and co-workers]. […] The libraries screened in the efforts represent a unique compound collection populated by nontraditional compounds [(a) Whitby et al., Acc. Chem. Res. 2012, 45:1698-1709; and (b) Boger et al., Angew. Chem. Int. Ed. 2003, 42:4138-4176] designed to target protein-protein [(a) Shaginian et al., J. Am. Chem. Soc. 2009, 131:5564-5572; and (b) Whitby et al., J. Am. Chem. Soc. 2011, 133:10184-10194] or protein-DNA interactions [Stover et al., J. Am. Chem. Soc. 2009, 131:3342-3348] as well as the major enzyme classes [Otrubova et al., Bioorg. Med. Chem. Lett. 2014, 24:3807-3813].
Hits were confirmed in an ELISA assay for stimulated TNF-α release from human PMA differentiated THP-1 cells and this assay was used for establishing dose-response curves and measured EC50 values.

[3] = Mus musculus, Macrophage, read-out: EC50, stimulated release of TNF-α from mouse macrophages
[4] = Homo sapiens, THP-1, running text, read-out: EC50, stimulated release of TNF-α from differentiated human THP-1 cells
[5] = Mus musculus, Macrophage, Scheme 1, footnote b, read-out: EC50 TNF-α release from mouse macrophages
[6] = Homo sapiens, THP-1, Scheme 1, footnote a, read-out: EC50 TNF-α release from human THP-1 cells

Structure (SMILES) | EC50 [1, 5] [nM] | EC50 [2, 6] [nM] | further results
O=C(N[C@H]1C[C@@H]1c1ccccc1)[C@@H]1CN(C(=O)c2ccc(C(=O)N3C[C@@H](C(=O)N[C@H]4C[C@@H]4c4ccccc4)[C@H](C(=O)N[C@H]4C[C@@H]4c4ccccc4)C3)cc2)C[C@H]1C(=O)N[C@H]1C[C@@H]1c1ccccc1 (racemic) [Compound 12, trans, trans-1,1′-Terephthaloylbis-(N^3,N^4-bis-(trans-2-phenylcyclopropyl)pyrrolidine-3,4-dicarboxamide)] | – | – | EC50 [1, 3]: 100 nM; EC50 [2, 4]: 10 nM; efficacy of TNF-α release compared with reference agonist ([2]; versus LPS or Pam3CSK4, side-by-side): equally efficacious with LPS
CCCCCCCCCCCCCCCCNC(=O)C1CCN(C(=O)c2ccc(C(=O)N3C[C@@H](C(=O)N[C@H]4C[C@@H]4c4ccccc4)[C@H](C(=O)N[C@H]4C[C@@H]4c4ccccc4)C3)cc2)C1 (stereo in doubt) [Compound 129, (3S,4S)-1-(4-((S)-3-(Hexadecylcarbamoyl)-pyrrolidine-1-carbonyl)benzoyl)—N^3,N^4-bis((1S,2R)-2-phenylcyclopropyl)pyrrolidine-3,4-dicarboxamide] | – | – | EC50 ([1]; table of 125-132 (one lipid side chain, R and S), mouse macrophages, read-out: EC50 (nM) (mouse)): > 5000 nM; EC50 ([2]; table of 125-132 (one lipid side chain, R and S), human THP-1 cells, read-out: EC50 (nM) (THP-1)): 5 nM
O=C(N[C@H]1C[C@@H]1c1ccccc1)[C@@H]1CN(C(=O)c2ccc(C(=O)N3C[C@@H](C(=O)N[C@H]4C[C@@H]4c4ccccc4)[C@H](C(=O)N[C@H]4C[C@@H]4c4ccccc4)C3)cc2)C[C@H]1C(=O)N[C@H]1C[C@@H]1c1ccccc1 [Compound 3, (3S,3′S,4S,4′S)-1,1′-Terephthaloylbis(N^3,N^4-bis((1S,2R)-2-phenylcyclopropyl)pyrrolidine-3,4-dicarboxamide)] | 1 | – | EC50 ([1]; Macrophage, Table 1, TNF-α release from mouse macrophages, read-out: EC50 (nM) (mouse)): 1 nM; EC50 [1, 3]: 1 nM
O=C(NCCc1ccc(F)cc1)[C@@H]1CN(C(=O)c2ccc(C(=O)N3C[C@@H](C(=O)NCCc4ccc(F)cc4)[C@H](C(=O)NCCc4ccc(F)cc4)C3)cc2)C[C@H]1C(=O)NCCc1ccc(F)cc1 [Compound 4, (3S,3′S,4S,4′S)-1,1′-Terephthaloylbis(N^3,N^4-bis(4-fluorophenethyl)-pyrrolidine-3,4-dicarboxamide)] | – | – | EC50 ([1]; Macrophage, Table 7, TNF-α release from mouse macrophages, read-out: EC50 (nM) (mouse)): > 5000 nM; EC50 ([2]; Homo sapiens, THP-1, Table 7, TNF-α release from human THP-1 cells, read-out: EC50 (nM) (THP-1)): 50 nM; EC50 [2, 4]: 50 nM; fold more potent than the all racemate ([2]; human THP-1 cells, single enantiomer versus its all racemate mixture): 3 fold
O=C(N[C@H]1C[C@@H]1c1ccccc1)[C@H]1CN(C(=O)c2ccc(C(=O)N3C[C@H](C(=O)N[C@H]4C[C@@H]4c4ccccc4)[C@@H](C(=O)N[C@H]4C[C@@H]4c4ccccc4)C3)cc2)C[C@@H]1C(=O)N[C@H]1C[C@@H]1c1ccccc1 [Compound 19, (3R,3′R,4R,4′R)-1,1′-Terephthaloylbis(N^3,N^4-bis((1S,2R)-2-phenylcyclopropyl)pyrrolidine-3,4-dicarboxamide)] | > 5000 | > 5000 | –
O=C(N[C@@H]1C[C@H]1c1ccccc1)[C@@H]1CN(C(=O)c2ccc(C(=O)N3C[C@@H](C(=O)N[C@@H]4C[C@H]4c4ccccc4)[C@H](C(=O)N[C@@H]4C[C@H]4c4ccccc4)C3)cc2)C[C@H]1C(=O)N[C@@H]1C[C@H]1c1ccccc1 [Compound 20, (3S,3′S,4S,4′S)-1,1′-Terephthaloylbis-(N^3,N^4-bis((1R,2S)-2-phenylcyclopropyl)pyrrolidine-3,4-dicarboxamide)] | > 5000 | > 5000 | –
O=C(N[C@@H]1C[C@H]1c1ccccc1)[C@H]1CN(C(=O)c2ccc(C(=O)N3C[C@H](C(=O)N[C@@H]4C[C@H]4c4ccccc4)[C@@H](C(=O)N[C@@H]4C[C@H]4c4ccccc4)C3)cc2)C[C@@H]1C(=O)N[C@@H]1C[C@H]1c1ccccc1 [Compound 21, (3R,3′R,4R,4′R)-1,1′-Terephthaloylbis-(N^3,N^4-bis((1R,2S)-2-phenylcyclopropyl)pyrrolidine-3,4-dicarboxamide)] | > 5000 | > 5000 | –
O=C(N[C@H]1C[C@@H]1c1ccccc1)[C@H]1CN(C(=O)c2ccc(C(=O)N3C[C@@H](C(=O)N[C@H]4C[C@@H]4c4ccccc4)[C@H](C(=O)N[C@H]4C[C@@H]4c4ccccc4)C3)cc2)C[C@@H]1C(=O)N[C@H]1C[C@@H]1c1ccccc1 [Compound 22, (3S,4S)-1-(4-((3R,4R)-3,4-Bis(((1S,2R)-2-phenylcyclopropyl)carbamoyl)pyrrolidine-1-carbonyl)-benzoyl)—N^3,N^4-bis((1S,2R)-2-phenylcyclopropyl)-pyrrolidine-3,4-dicarboxamide] | 150 | 3 | –
O=C(N[C@H]1C[C@@H]1c1ccccc1)[C@H]1CN(C(=O)c2ccc(C(=O)N3C[C@@H](C(=O)N[C@@H]4C[C@H]4c4ccccc4)[C@H](C(=O)N[C@@H]4C[C@H]4c4ccccc4)C3)cc2)C[C@@H]1C(=O)N[C@H]1C[C@@H]1c1ccccc1 [Compound 23, (3R,4R)-1-(4-((3S,4S)-3,4-Bis(((1R,2S)-2-phenyl-cyclopropyl)carbamoyl)-pyrrolidine-1-carbonyl)-benzoyl)—N^3,N^4-bis((1S,2R)-2-phenylcyclopropyl)-pyrrolidine-3,4-dicarboxamide] | > 5000 | > 5000 | –
O=C(N[C@H]1C[C@@H]1c1ccccc1)[C@@H]1CN(C(=O)c2ccc(C(=O)N3CCCC3)cc2)C[C@H]1C(=O)N[C@H]1C[C@@H]1c1ccccc1 [Compound 30, (3S,4S)—N^3,N^4-Bis((S, 2R)-2-phenyl-cyclopropyl)-1-(4-(pyrrolidine-1-carbonyl)benzoyl)-pyrrolidine-3,4-dicarboxamide] | – | – | fold less active than 29 ([1]; printed as in mouse macrophages): 10 fold; EC50 [2, 4]: 2000 nM; fold less active/potent than diprovocim-1 (3) ([2]; human THP-1 cells): 20,000 fold
O=C(CCN(CCC(=O)N[C@H]1C[C@@H]1c1ccccc1)C(=O)c1ccc(C(=O)N(CCC(=O)N[C@H]2C[C@@H]2c2ccccc2)CCC(=O)N[C@H]2C[C@@H]2c2ccccc2)cc1)N[C@H]1C[C@@H]1c1ccccc1 [Compound 34, N^1,N^1,N^4,N^4-Tetrakis(3-oxo-3-(((1S,2R)-2-phenyl-cyclopropyl)amino)propyl)terephthalamide] | – | – | activity in stimulating TNF-α release from mouse macrophages (in words) ([1]; tested up to 5 μM where stated): inactive

Second part, led by results:

EC50 [1, 5] [nM] | EC50 [2, 6] [nM] | Structure (SMILES) | further results
> 5000 | > 5000 | O=C(N[C@@H]1C[C@H]1c1ccccc1)[C@H]1CN(C(=O)c2ccc(C(=O)N3C[C@@H](C(=O)N[C@@H]4C[C@H]4c4ccccc4)[C@H](C(=O)N[C@@H]4C[C@H]4c4ccccc4)C3)cc2)C[C@@H]1C(=O)N[C@@H]1C[C@H]1c1ccccc1 [Compound 24, (3S,4S)-1-(4-((3R,4R)-3,4-Bis(((1R,2S)-2-phenyl-cyclopropyl)carbamoyl)-pyrrolidine-1-carbonyl)-benzoyl)—N^3,N^4-bis((1R,2S)-2-phenylcyclopropyl)-pyrrolidine-3,4-dicarboxamide] | –
> 5000 | 6 | O=C(N[C@H]1C[C@@H]1c1ccccc1)[C@@H]1CN(C(=O)c2ccc(C(=O)N3C[C@@H](C(=O)N[C@@H]4C[C@H]4c4ccccc4)[C@H](C(=O)N[C@@H]4C[C@H]4c4ccccc4)C3)cc2)C[C@H]1C(=O)N[C@H]1C[C@@H]1c1ccccc1 [Compound 25, (3S,4S)-1-(4-((3S,4S)-3,4-Bis(((1R,2S)-2-phenylcyclopropyl)carbamoyl)-pyrrolidine-1-carbonyl)-benzoyl)—N^3,N^4-bis((1S,2R)-2-phenylcyclopropyl)-pyrrolidine-3,4-dicarboxamide] | –
> 5000 | ≥ 5000 | O=C(N[C@H]1C[C@@H]1c1ccccc1)[C@H]1CN(C(=O)c2ccc(C(=O)N3C[C@H](C(=O)N[C@@H]4C[C@H]4c4ccccc4)[C@@H](C(=O)N[C@@H]4C[C@H]4c4ccccc4)C3)cc2)C[C@@H]1C(=O)N[C@H]1C[C@@H]1c1ccccc1 [Compound 26, (3R,4R)-1-(4-((3R,4R)-3,4-Bis(((1R,2S)-2-phenylcyclopropyl)carbamoyl)-pyrrolidine-1-carbonyl)-benzoyl)—N^3,N^4-bis((1S,2R)-2-phenylcyclopropyl)-pyrrolidine-3,4-dicarboxamide] | –
≥ 5000 | 20 | O=C(N[C@@H]1C[C@H]1c1ccccc1)[C@H]1CN(C(=O)c2ccc(C(=O)N3C[C@@H](C(=O)N[C@H]4C[C@@H]4c4ccccc4)[C@H](C(=O)N[C@H]4C[C@@H]4c4ccccc4)C3)cc2)C[C@@H]1C(=O)N[C@@H]1C[C@H]1c1ccccc1 [Compound 27, (3S,4S)-1-(4-((3R,4R)-3,4-Bis(((1R,2S)-2-phenyl-cyclopropyl)carbamoyl)-pyrrolidine-1-carbonyl)-benzoyl)—N^3,N^4-bis((1S,2R)-2-phenylcyclopropyl)-pyrrolidine-3,4-dicarboxamide] | –
